The source of these data is paper PMC7502707, “Characterization and validation of a preventative therapy for hypertrophic cardiomyopathy in a murine model of the disease” (Proceedings of the National Academy of Sciences of the …, 2020).

In series [1] the test system is myocytes isolated from wt and cTnI-G203S mice. Put plainly: Mitochondrial membrane potential (JC-1) in myocytes isolated from treated mice. The class given is in vivo, mouse.
Method: Male mice expressing the human cTnI gene encoding the human disease-causing mutation cTnI-G203S were used for all studies. […] Male mice expressing the normal human cTnI gene were used as controls (wt). Ten-week-old mice were used for in vitro studies. For in vivo studies, 20- or 30-wk-old cTnI-G203S mice were treated with 10 μM AID-TAT or AID[S]-TAT via intraperitoneal injection, 3×/wk/5 wk. In vivo dose of AID-TAT or AID[S]-TAT (10 μM) was calculated based on blood volume, equating to ∼2 mg/kg total BW. Male animal models were used to eliminate potential differences in responses due to sex. Experiments were performed in a total of 21 wt (AID[S]-TAT), 6 wt (AID-TAT), 15 cTnI-G203S (AID[S]-TAT), and 26 cTnI-G203S (AID-TAT) mice. All animals were randomly assigned to treatment groups.
Fluorescence was measured on a Hamamatsu Orca ER digital camera attached to an inverted Nikon TE2000-U microscope. Fluorescent indicator 5,5′,6,6′-tetrachloro-1,1′,3,3′-tetraethylbenzimidazolylcarbocyanine iodide was used to measure Ψm in cardiac myocytes, as previously described (JC-1, Molecular Probes) ([61]). Autofluorescence was used to measure flavoprotein oxidation in cardiac myocytes based on previously described methods ([13], [29], [62]). Responses to drugs were reported as a percentage increase from the basal average.
Cells were incubated in calcium-free HBS (supplemented with 3 mM EGTA and 200 nM JC-1) for at least 3 h prior to measuring changes in m. Sodium cyanide (NaCN, 40 mM, mitochondrial electron transport blocker) was added at the end of each experiment to collapse m, confirming that the JC-1 signal was indicative of m.
Additionally, individual 580 nm and 535 nm wavelength signals were assessed in each experiment to determine whether the fluorescent indicator was accurately measuring m. Autofluorescence was used to measure flavoprotein oxidation in cardiac myocytes based on previously described methods (ex = 480 nm, em = 535 nm, interval = 1 min, exposure = 1.5 seconds) (4, 6, 7). Carbonyl cyanide-4-(trifluoromethoxy)phenylhydrazone (FCCP, 50 μM, mitochondrial electron transport chain uncoupler) was added at the end of each experiment to increase flavoprotein oxidation confirming signal was mitochondrial in origin. Ratiometric JC-1 or flavoprotein fluorescent signals were quantified by manually tracing myocytes and subtracting an equivalent background region
Responses to drugs were reported as a percentage increase from the basal average. […]
In series [2] the test system is cardiac L-type calcium channel (ICa-L). Also noted: method as in PMID 19166857, PMID 24969422, PMID 24958783. As to conditions: wt myocytes; cited from earlier work.
Series [3] deals with BALB/c nude mice. As to conditions: mouse, in vivo. On the procedure:
Eight-week-old male BALB/c nude mice were used to assess in vivo cardiac uptake and bio-distribution of sulfo-Cyanine7-labeled AID(S)-TAT and AID-TAT (Cy7, W&J PharmaChem) using a CRi Maestro 2 multispectral imaging system (Cambridge Research and Instrumentation) based on previously described methods ([63]). All studies were performed in mice anesthetized with isoflurane (2 to 4%), followed by intraperitoneal injection of pentobarbitone sodium (240 mg/kg), as approved by the Animal Ethics Committee of The University of Western Australia in accordance with the 2013 Australian Code for the Care and Use of Animals for Scientific Purposes ([58]). Detailed methods are provided in SI Appendix.
50 ms, Molecular Probes, Eugene, Oregon) (5). Cells were incubated in calcium-free HBS (supplemented with 3 mM EGTA and 200 nM JC-1) for at least 3 h prior to measuring changes in Ψm. Sodium cyanide (NaCN, 40 mM, mitochondrial electron transport blocker) was added at the end of each experiment to collapse Ψm, confirming that the JC-1 signal was indicative of Ψm.
Additionally, individual 580 nm and 535 nm wavelength signals were assessed in each experiment to determine whether the fluorescent indicator was accurately measuring Ψm. […] Ratiometric JC-1 or flavoprotein fluorescent signals were quantified by manually tracing myocytes and subtracting an equivalent background region […]

The test system of series [4] is myocytes isolated from cTnI-G203S mice. Put plainly: Cell size of myocytes isolated from treated mice. In kind it is in vivo, mouse. As to conditions: 10 μM 3×/wk/5 wk, compared to AID(S)-TAT. On the procedure:
Cell size was determined as previously described ([64]). Detailed methods are provided in SI Appendix.
Echocardiographic measurement of left ventricular function were performed on mice under light methoxyflurane anesthesia using an i13L probe on a Vivid 7 Dimension ultrasound system (GE Healthcare, Little Chalfont, United Kingdom) as previously described (4, 7). Echocardiographic measurements were taken on M-mode in triplicate from separate mice at a sweep speed of 200 mm/s. Each n represents the average of quantitative measurements from wt or cTnI-G203S mice for each treatment group. […] FS was calculated by the formula [(LVEDD-LVESD)/EDD] x 100.
Cell size was determined as previously described (16). […]
To measure kidney toxicity, urea and creatinine concentration was assessed using QuantiChrom Urea and Creatinine assay kits respectively (BioAssay Systems, Hayward CA). To measure liver toxicity, alanine transaminase (ALT) and aspartate transaminase (AST) concentration was measured using Alanine Transaminase and Aspartate Transaminase assay kits respectively (BioAssay Systems, Hayward CA). […]

In the case of QQLEEDLKGYLDWITQAE [AID-TAT], the “cardiac Ψm and mitochondrial metabolic activity (flavoprotein oxidation) following BayK(−)” value in series [1] (myocytes from cTnI-G203S mice with established cardiomyopathy treated 10 μM 3×/wk/5 wk from 30 wk) is “does not restore cardiac Ψm or mitochondrial metabolic activity to wt levels”. Also, the “increase in Ψm (JC-1) following BayK(−)” value in series [1] (myocytes from precardiomyopathic cTnI-G203S mice treated 10 μM i.p. 3×/wk/5 wk from 20 wk) is given as “reduced this response to a level comparable to that observed in wt myocytes”. Besides, the “inactivation rate of the cardiac ICa-L” value in series [2] is “slows the inactivation rate”. Also, in series [3], the “Cy7 decay (clearance) in left or right kidney, or liver” value is on record as “no significant difference”. The “echocardiographic parameters and cell size” value in series [4] (30-wk-old cTnI-G203S mice) is listed as “did not significantly improve echocardiographic parameters, or alter cell size”. For the same sequence, the myocyte cell size entry in series [4] (precardiomyopathic cTnI-G203S mice) is recorded as “significantly lower cell size”.
